Patent US4060652A (priority 1976, dated 1977)
Entries after “also recorded” stand apart in the source; their conditions may differ.

Experiments:
rabbits [1] = assay: Chronic toxicity in rabbits; format: in vivo
Experimental: Tercuronium was given intravenously to four rabbits, once a day in the course of twelve days, in a dose that induced the head-drop symptom, i.e. 0.02 to 0.024 mcM/kg. Physiological solution was injected instead of Tercuronium to two other rabbits (controls). The animals were weighed daily, their rectal temperature taken, and behaviour observed. Clinical analysis of urine and blood was performed three times. At the end of the experiment, the rabbits were killed (phlebotomy). The liver, kidneys, heart, lungs, adrenal glands, spleen, as well as marginal ear vein, into which Tercuronium had been injected, were histologically studied.

[2] = tested on: nervomuscular conduction and arterial pressure; assay: Effect of narcotics on action in decerebrated cats; format: in vivo
Source text: The action of ether, fluorothane, and sodium thiopental (given in narcotic concentrations) on the nervomuscular blocking activity and depressive effect (action on the arterial pressure) of Tercuronium, as well as on the neostigmin-Tercuronium antagonism was studied on decerebrated cats.

[3] = Lethality by paralysis of respiratory muscles in mice; conditions: mouse, in vivo, iv
Source text: In experiments on albino mice, the dose of Tercuronium injected into the tail vein, that inhibited the symptom of turning from the lateral position in 50 percent of mice (ED50) was 0.06 mcM/kg (18 experiments); and 50 percent of mice perished from paralysis of the respiratory muscles (LD50) following an injection of 0.09 mcM/kg of Tercuronium.

patients = assay: Surgical operations, second series (intubation and maintenance); format: in vivo, patients (human)
Experimental: We tried Tercuronium as a muscle relaxant in surgical operations on the abdominal and thoracic organs in 150 patients. The operations were carried out in conditions of intubation narcosis and artificial lung ventilation. Ether, fluorothane, nitrous oxide and barbiturates were used as anesthetics.
In the second series of observations (30 operations), Tercuronium was used for both maintaining muscle relaxation and intubation of the trachea. For this purpose, Tercuronium was used intravenously in a dose of 0.25 to 0.3 mg/kg. […] The relaxation continued for about an hour. For a longer relaxation of muscles, a repeated injection of Tercuronium in a dose of 0.05 to 0.08 mg/kg was required.

rabbits [4] = assay: Head-drop test in non-narcotized rabbits; format: in vivo
Experimental: In experiments (a total of twenty) on non-narcotized rabbits, the head-drop dose (HDD) was 0.022 ± 0.009 micromole/kg A complete blocking effect developed 1.5 to 2 minutes after administration of Tercuronium and persisted for 3 to 5 minutes. A few minutes later, the animal behaviour normalized. The same effect was attained with 0.18 ± 0.02 micromole/kg of α-tubocurarin (6 experiments) and 0.018 ± 0.001 mcM/kg of pancuronium (6 experiments). The time of onset and the duration of the blocking effect with all the three preparations were the same.

[5] = tested on: postsynaptic membrane of skeletal muscle; assay: Site of action: close intra-arterial acetylcholine and direct stimulation; format: in vivo; conditions: cats
Experimental: (§1) Cats were narcotized (with chloralose, 50 mg per kg body weight, and urethane, 500 mg/kg, intraperitoneally) or decerebrated at the quadrigeminal bodies level. The lungs were ventilated artificially whenever necessary. Contractions of the anterior tibial muscle were recorded in isotonic concitions in response to electric stimulation of the peripheral part of n. peroneus with supramaximum pulses of 0.1 msec at a frequency of 0.1-100 Hz.
The blocking effect of Tercuronium is due to its action on the postsynaptic membrane of skeletal muscle.

[6] = tested on: nervomuscular conduction, vegetative ganglia, circulation; assay: Overall conclusions from animal experiments; format: in vivo, animals
Source text: The results of the pharmacological studies of the proposed muscle relaxant Tercuronium, as compared with the known muscle relaxants, enable us to make the following conclusions.

[7] = tested on: nervomuscular conduction, anterior tibial muscle; assay: Neostigmin antagonism of nervomuscular block in cats; format: in vivo
Experimental: as §1
For example, even with a 5-fold dose of tercuronium, muscle contractility was restored already in 2 to 5 minutes following a single injection of neostigmin in a dose of 0.1 mg/kg, and in 15-20 minutes the recovery of the contactile function was complete.
In the case of pancuronium and α-tubocurarin, the restoration within these short periods of time could only be attained with 2-3 fold doses of these muscle relaxants. If the dose of pancuronium was increased 4 to 5 times, weak contractions of the muscle were observed not sooner than in 9 to 10 minutes and the contraction was, restored completely only 30 minutes after the injection of neostigmin (six experiments). The restoration of muscle contractility is delayed even longer in the case of α-tubocurarin.

[8] = tested on: phrenico-diaphragm preparations; assay: Block of nervomuscular conduction in isolated phrenico-diaphragm preparations; design: species or system rats; conditions: rat, isolated by the Bulbring method
Source text: In experiments on phrenico-diaphragm preparations of rats, isolated by the Bulbring method, the block of the nervomuscular conduction developed under the action of Tercuronium in a concentration of 2 × 10^-6 m/litre.

[9] = tested on: nervomuscular conduction, anterior tibial muscle; assay: Nervomuscular block in cats, indirect stimulation of anterior tibial muscle; format: in vivo
Experimental: The preparation was studied in acute experiments on cats, rabbits, mice and pigeons, in experiments on phrenico-diaphragm preparations of rats, and also on the straight muscle of a frog abdomen. The properties of Tercuronium were compared with those of α-tubocurarin and pancuronium.
as §1

pigeons = assay: Paralysis in pigeons; format: in vivo
respiration = assay: Inhibition of respiration in narcotized and decerebrated cats (and rabbits); format: in vivo
Source text: This developed simultaneously with the block of the nervomuscular conduction in the anterior tibial muscle. […] The same result was obtained in experiments on rabbits. The ratio of LD50 in experiments on rabbits and mice, as specified above, also provides data on the that Tercuronium produces on respiration.

[10] = 0.02 to 0.024 mcM/kg daily, twelve days
[11] = deep fluorothane-induced anesthesia
[12] = ether, fluorothane, sodium thiopental
[13] = 0.08 micromole per kg intravenous

CC[N+](CC)(CC)c1ccc(-c2ccc(-c3ccc([N+](CC)(CC)CC)cc3)cc2)cc1 [Tercuronium, p,p"-bis-triethylammonio-n-terphenyl dibenzenesulphonate]
behaviour and rectal temperature (rabbits [1]; [10]): no appreciable changes | blood and urine analysis (rabbits [1]; [10]): did not find any pathological inclusions or changes | histological examination of organs (rabbits [1]; [10]): Nor did we discover any pathological changes | sensitivity of animals in the course of the experiment (rabbits [1]; 0.02 to 0.024 mcM/kg intravenous daily, twelve days): did not change in the course of the experiment | irritating action at site of administration (rabbits [1]; ear vein): no signs of irritating action | interaction with fluorothane on blood pressure ([2]; decerebrated cats): did not observe mutual strengthening of fluorothane and Tercuronium action on blood pressure | action on arterial pressure in ether narcosis ([2]; deep ether-induced narcosis): did not substantially change | depressive effect in fluorothane anesthesia [2, 11]: failed to increase | myoparalytic effect in fluorothane anesthesia [2, 11]: intensified insignificantly | compatibility with anesthetic agents [2, 12]: quite compatible with anesthetic agents such as ether, fluorothane, and sodium thiopental | neostigmin antagonism against background of narcotics [2, 12]: persisted against the back ground of narcotics; also recorded: fully preserved | curare-like activity and action on blood pressure with sodium thiopental ([2]; sodium thiopental 10 mg/kg): did not change | LD50 [3]: 0.09 µmol/kg | selectivity ratio ([3]; read-out: width of the muscle relaxing action (LD50/ED50)): 1.5 | cardiovascular disorders or other complications (patients; 0.25 to 0.3 mg/kg): not accompanied by cardiovacular disorders or any other complications | duration of relaxation (patients; 0.25 to 0.3 mg/kg intravenous): about an hour | intubation conditions (patients; 0.25 to 0.3 mg/kg intravenous): unobstructed intubation | postoperative complications (patients; postoperative period): no cases of muscle atomia, respiratory insufficiency, or recurarization | efficiency of proserpin as deblocking agent (patients; proserpin): complete | ED (head drop) (rabbits [4]; Oryctolagus cuniculus, read-out: head-drop dose (HDD)): 0.022 ± 0.009 µmol/kg | time of onset and duration of blocking effect, comparison (rabbits [4]; all three preparations): the same | blocking effect compared with pancuronium (rabbits [4]; rabbits): somewhat lower than that of pancuronium | blocking effect relative to α-tubocurarin (rabbits [4]; rabbits): eight | site of blocking action [5]: contraction of muscles induced by acetylcholine injected by the close intra-arterial method, was inhibited simultaneously with the block of the nervomuscular condution; also recorded: it contracted in response to direct stimuli | blood pressure at ten-fold dose ([6]; cats, ten-fold dose): only slightly reduced | nervomuscular blocking activity compared with pancuronium ([6]; experiments on animals): somewhat lower than of pancuronium | histamine, vegetative ganglia, blood pressure and heart frequency ([6]; myoparalytic dose): does not produce histamine, does not block vegetative ganglia or affect the blood pressure and frequency of heart contractions | frequency of heart contraction ([6]; ten times the myoparalytic dose): does not affect the frequency of heart contraction | time to complete recovery of contractile function after neostigmin ([7]; 5-fold dose, neostigmin 0.1 mg/kg): 15 to 20 min | strength of neostigmin antagonism compared with other relaxants ([7]; cats): stronger that toward α-tubocurarin or pancuronium; also recorded: stronger with Tercuronium than with pancuronium or α-tubocurarin | number of myoparalytic doses whose blocking effect is completely removed by neostigmin ([7]; neostigmin 0.1 mg/kg intravenous, within five minutes): five | restoration from block by neostigmin ([7]; neostigmin 0.05 to 0.1 mg/kg intravenous): fully and immediately restored | concentration blocking nervomuscular conduction [8]: 2 × 10^-6 m/litre | dependence of block on stimulation frequency [9]: more manifest with increasing frequency of pulse stimuli; also recorded: tetanization of the motor nerve at a frequency of 50 to 100 Hz produces a pessimal reaction in the muscle | influence of other agents on action [9]: lessened by the action of neostigmin, succinylcholine, decamethonium, and acetylcholine and strengthened by α-tubocurarin | mean duration of effect [9]: eight | block of nervomuscular conduction [9, 13]: 95-100% | time to block following injection [9, 13]: 40 to 60 s | time to complete restoration of muscle contractility ([9]; after injection): 10 ± 1.5 min | dose blocking nervomuscular conduction (95-100 percent) ([9]; intravenous, 0.1 Hz): 0.08 ± 0.002 micromole per kg | effect in pigeons (pigeons; 0.2 mcM/kg intravenous): weak paralysis developed; also recorded: shows the nondepolarizing effect as well | ED50 (pigeons; Columbidae, pigeons, intravenous): 0.2 µmol/kg | bronchospasm (respiration; 200-1000-fold dose, artificial ventilation, cats, same in rabbits): bronchospasm did not develop | inhibition of respiration by blocking doses, comparison (respiration; from LD50 to ED50 ratio): equally inhibit respiration | effect on respiration (respiration; narcotized and decerebrated cats): respiration was inhibited and stopped by a curare-like paralysis of the diaphragm; also recorded: respiration was restored simultaneously with the restoration of the muscle contraction
